Experiments:
mice = assay: Skin-fold thickness as a measure of UV-induced edema; type: in vivo, mouse
From the text: Adult female CD-1 mice were maintained in our animal facility and provided with Purina lab chow (Nestlé Purina PetCare, St. Louis, Mo.) and water ad libitum. The dorsal skin was clipped one day before treatment and shaved with a Remington Microscreen shaver (Wahl, Sterling, II) on the day of treatment. […] UVB TL 40W/12 RS bulbs (Philips, Somerset, N.J.) were used that emitted approximately 30% UV-A, 70% UV-B and <1% UV-C, with a total output of 470 μW/cm^2, as measured with radiometric photodetector probes (Newport, Irvine, Calif.). Skin-fold thickness was measured using calipers to lightly pinch the dorsal skin. All animal procedures were approved by our Institutional Animal Care and Use Committee.

Akt = Akt activity by phosphorylation on immunoblot in keratinocytes; type: cell-based, mouse; settings: sham-irradiated keratinocytes and 30 minutes post-UV
Procedure: Immunoblotting. Flash frozen skin was ground with a mortar and pestle on dry ice, homogenized in lysis buffer containing 10 mM Tris (pH 7.4), 150 mM NaCl, 10% glycerol, 1% Triton X-100, 1 mM EDTA, Complete Protease Inhibitor Cocktail (Roche, Germany), 1 mM Na3V O4, 1.5 μM EGTA, and 10 μM NaF. Protein was quantified using the Coomassie Brilliant Blue G-250 protein assay (Bio-Rad, Hercules, Calif.). The evenness of loading and transfer was determined by staining with Ponceau S and by actin immunoblotting. […]
Cell culture. […] Transfection efficiency was quantified by determining the proportion of the cells that incorporated the fluorescent Cy3-conjugated siRNA or GFP one day post-transfection. […]

keratinocytes = assay: Apoptosis in keratinocytes (ssDNA Apoptosis ELISA); type: cell-based, mouse
From the text: Cell culture. […] Keratinocytes were transfected with Erbb2-targeted siRNA (32), Stealth RNAi Negative Control LO GC (Invitrogen, Carlsbad, Calif.), Cy3-conjugated Label IT RNAi Delivery Control (Mirus, Madison, Wis.) or sham transfection with TransIT-siQUEST Transfection Reagent (Mirus, Madison, Wis.). Plasmids with Cdc25a (Hassepass et al. 2003a) and EGFP (enhanced green fluorescent protein) cDNA were cotransfected with Lipofectamine Transfection Reagent (Invitrogen, Carlsbad, Calif.). Transfection efficiency was quantified by determining the proportion of the cells that incorporated the fluorescent Cy3-conjugated siRNA or GFP one day post-transfection. Keratinocytes homozygous for the Erbb2 loxP mutation were infected with Cre recombinase-expressing or empty adenoviral vectors in polybrene (Sigma).
Proliferation and apoptosis assays. Proliferation, survival and apoptosis were quantified in three replicate experiments. BrdU uptake was measured by a chemiluminescenit BrdU Cell Proliferation ELISA (Roche, Germany). Survival was quantified using 4-methylumbelliferyl heptanoate (MUH, Sigma, St. Louis, Mo.) degradation product fluorescence (ex: 360 nm, em:465 nm) as a marker for cell viability based on the method by Dotsika et al.^27 Cells were incubated in 100 μg/ml MUH in PBS for 30 minutes at 37° C. MUH fluorescence from wells lacking cells was subtracted from all samples. Apoptosis was measured using an ssDNA Apoptosis ELISA kit (Chemicon, Temecula, Calif.).
To investigate the role of Erbb2 in apoptosis following UV exposure, keratinocyte survival was measured in AG825-treated or Erbb2 siRNA-transfected cells and controls. As expected, apoptosis increased in all groups after UV exposure, as detected by ssDNA quantification.

SMILES: COc1cc(/C=C(\C#N)C(N)=O)cc(CSc2nc3ccccc3s2)c1O [AG825]
- suppression of UV-induced edema (skin-fold thickness) (mice; 4 d after UV exposure): 33%
- suppression of UV-induced edema (skin-fold thickness) (mice; 5 d after UV exposure): 37%
- suppression of UV-induced edema (skin-fold thickness) (mice; 6 d after UV exposure): 64%
- Akt activity, measured by its phosphorylation on immunoblot (Akt): reduced
- ssDNA (apoptosis), compared with DMSO-treated keratinocytes (keratinocytes; between 6 and 12 h post-UV): similarly increased
- apoptosis compared to DMSO-treated cells (keratinocytes; by 24 h after UV exposure): significantly increased
- apoptosis after UV in vitro (keratinocytes; extent varies with the assay): small increase
